The assay deals with MDA-MB-435/MDR TRAIL potentiation, ATPlite luminescence, 24 h. The assay can be described thus: PubChem AID 2647.

In the case of `CSc1nc(-c2ccc(C)cc2)nc(C(Cl)Cl)n1`, the cytotoxicity with TRAIL (at 10 µM (top of the series)) was 84%. Moreover, for the setting “compound alone without TRAIL, at 10 µM, stronger effect = higher value”, the cytotoxicity was 1%.

The record behind these values is PubChem BioAssay AID2647 (Sanford-Burnham Center for Chemical Genomics, 2010).
